# Source: paper PMC5131310, “Discovery of piperonal-converting oxidase involved in the metabolism of a botanical aromatic aldehyde” (Scientific Reports, 2016)
# Molecular target: T1, piperonal-converting enzyme (PceSML), FAD site on PceM (Burkholderia sp. CT39-3, UniProt A0A1L7N251)
# T1 construct: same recombinant complex as P1 (N-terminal His tag on PceS, host Burkholderia sp. CT39-3); with Piperonal-converting enzyme large subunit (PceL); Piperonal-converting enzyme small subunit (PceS)
# T1 sequence (A0A1L7N251 1-334): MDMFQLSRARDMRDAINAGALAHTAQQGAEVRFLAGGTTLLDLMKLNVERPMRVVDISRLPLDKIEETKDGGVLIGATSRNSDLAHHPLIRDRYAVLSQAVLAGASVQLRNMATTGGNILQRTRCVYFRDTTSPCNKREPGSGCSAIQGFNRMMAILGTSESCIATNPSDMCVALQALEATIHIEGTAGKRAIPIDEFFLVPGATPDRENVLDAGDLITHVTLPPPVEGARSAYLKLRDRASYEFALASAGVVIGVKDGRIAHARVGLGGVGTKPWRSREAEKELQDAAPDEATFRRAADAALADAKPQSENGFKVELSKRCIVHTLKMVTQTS
# T1 sequence (A0A1L7N257 1-740 partner): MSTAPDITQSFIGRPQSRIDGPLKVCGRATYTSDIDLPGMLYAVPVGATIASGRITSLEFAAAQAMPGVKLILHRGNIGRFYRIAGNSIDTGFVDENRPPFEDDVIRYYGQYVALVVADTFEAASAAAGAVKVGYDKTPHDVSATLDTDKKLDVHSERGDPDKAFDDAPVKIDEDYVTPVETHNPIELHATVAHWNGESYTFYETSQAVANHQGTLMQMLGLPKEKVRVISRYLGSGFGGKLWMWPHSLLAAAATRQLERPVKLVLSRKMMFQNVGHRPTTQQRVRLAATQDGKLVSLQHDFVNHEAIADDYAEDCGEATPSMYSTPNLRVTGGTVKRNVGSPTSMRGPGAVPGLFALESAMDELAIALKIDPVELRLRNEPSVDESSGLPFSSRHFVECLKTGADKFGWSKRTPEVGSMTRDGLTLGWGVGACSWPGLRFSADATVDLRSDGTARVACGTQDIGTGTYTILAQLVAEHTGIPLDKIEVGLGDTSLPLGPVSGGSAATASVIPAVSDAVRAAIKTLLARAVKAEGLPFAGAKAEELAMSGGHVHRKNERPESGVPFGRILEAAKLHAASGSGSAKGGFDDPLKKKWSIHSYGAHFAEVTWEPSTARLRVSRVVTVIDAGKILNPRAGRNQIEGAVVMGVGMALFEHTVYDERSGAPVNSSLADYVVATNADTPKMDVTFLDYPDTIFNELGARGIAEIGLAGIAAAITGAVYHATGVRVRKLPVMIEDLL
# T1 sequence (A0A1L7N258 1-185 partner): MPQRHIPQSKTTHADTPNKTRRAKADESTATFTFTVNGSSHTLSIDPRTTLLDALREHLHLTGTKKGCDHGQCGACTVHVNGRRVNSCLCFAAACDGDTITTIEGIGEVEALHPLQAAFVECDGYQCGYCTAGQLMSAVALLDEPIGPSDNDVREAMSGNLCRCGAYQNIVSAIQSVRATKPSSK
# Assay: HPLC of flavin released from purified enzyme by HClO4
# Type: binding
# Conditions: as-purified cofactor
structure (smiles),measurement,value
Cc1cc2nc3c(=O)[nH]c(=O)nc-3n(C[C@H](O)[C@H](O)[C@H](O)COP(=O)(O)OP(=O)(O)OC[C@H]3O[C@@H](n4cnc5c(N)ncnc54)[C@H](O)[C@@H]3O)c2cc1C [FAD],HPLC of flavin released from purified enzyme by HClO4,FAD was identified as the flavin cofactor (Fig. 3A)
